Laboratory results: ChEMBL document CHEMBL2424636, “Synthesis and anticancer activity evaluation of new 1,2,3-triazole-4-carboxamide derivatives” (2013)

Assays:
Type in all cases: functional
RPMI-8226 = assay: Cytotoxicity against human RPMI8226 cells assessed as cell growth at 10^-5 M after 48 hrs by SRB assay; conditions: RPMI-8226, 48 h, read-out: Activity
A498 = assay: Cytotoxicity against human A498 cells assessed as cell growth at 10^-5 M after 48 hrs by SRB assay; conditions: A498, 48 h, read-out: Activity
MCF7 = assay: Cytotoxicity against human MCF7 cells assessed as cell growth at 10^-5 M after 48 hrs by SRB assay; conditions: MCF7, 48 h, read-out: Activity
NCI-H522 = assay: Cytotoxicity against human NCI-H522 cells assessed as cell growth at 10^-5 M after 48 hrs by SRB assay; conditions: NCI-H522, 48 h, read-out: Activity
K562 = assay: Cytotoxicity against human K562 cells assessed as cell growth at 10^-5 M after 48 hrs by SRB assay; conditions: K562, 48 h, read-out: Activity
HOP-92 = assay: Cytotoxicity against human HOP92 cells assessed as cell growth at 10^-5 M after 48 hrs by SRB assay; conditions: HOP-92, 48 h, read-out: Activity
HL-60(TB) = assay: Cytotoxicity against human HL-60(TB) cells assessed as cell growth at 10^-5 M after 48 hrs by SRB assay; conditions: HL-60, 48 h, read-out: Activity
MDA-MB-468 = assay: Cytotoxicity against human MDA-MB-468 cells assessed as cell growth at 10^-5 M after 48 hrs by SRB assay; conditions: MDA-MB-468, 48 h, read-out: Activity
UO-31 = assay: Cytotoxicity against human UO31 cells assessed as cell growth at 10^-5 M after 48 hrs by SRB assay; conditions: UO-31, 48 h, read-out: Activity
SNB-75 = assay: Cytotoxicity against human SNB75 cells assessed as cell growth at 10^-5 M after 48 hrs by SRB assay; conditions: SNB-75, 48 h, read-out: Activity
IGROV-1 = assay: Cytotoxicity against human IGROV1 cells assessed as cell growth at 10^-5 M after 48 hrs by SRB assay; conditions: IGROV-1, 48 h, read-out: Activity
SF-539 = assay: Cytotoxicity against human SF539 cells assessed as cell growth at 10^-5 M after 48 hrs by SRB assay; conditions: SF-539, 48 h, read-out: Activity
UACC-62 = assay: Cytotoxicity against human UACC62 cells assessed as cell growth at 10^-5 M after 48 hrs by SRB assay; conditions: UACC-62, 48 h, read-out: Activity
PC-3 = assay: Cytotoxicity against human PC3 cells assessed as cell growth at 10^-5 M after 48 hrs by SRB assay; conditions: PC-3, 48 h, read-out: Activity
HOP-62 = assay: Cytotoxicity against human HOP62 cells assessed as cell growth at 10^-5 M after 48 hrs by SRB assay; conditions: HOP-62, 48 h, read-out: Activity
SR = assay: Cytotoxicity against human SR cells assessed as cell growth at 10^-5 M after 48 hrs by SRB assay; conditions: read-out: Activity
CAKI-1 = assay: Cytotoxicity against human Caki1 cells assessed as cell growth at 10^-5 M after 48 hrs by SRB assay; conditions: CAKI-1, 48 h, read-out: Activity
A549 = assay: Cytotoxicity against human A549/ATCC cells assessed as cell growth at 10^-5 M after 48 hrs by SRB assay; conditions: A549, 48 h, read-out: Activity

## Nc1c(C(=O)Nc2ccc(F)cc2)nnn1-c1cccc(C(F)(F)F)c1
RPMI-8226
  growth at 10 µM: 81.4%
A498
  growth at 10 µM: 81.7%
MCF7
  growth at 10 µM: 82.5%

## Nc1c(C(=O)NC2CCCC2)nnn1-c1cccc(C(F)(F)F)c1
NCI-H522
  growth at 10 µM: 87%
A498
  growth at 10 µM: 89.1%

## COc1ccc(NC(=O)c2nnn(-c3cccc(C(F)(F)F)c3)c2N)c(OC)c1
K562
  growth at 10 µM: 71.7%
HOP-92
  growth at 10 µM: 77.3%
HL-60(TB)
  growth at 10 µM: 78.4%

## Nc1c(C(=O)c2c[nH]c3ccccc23)nnn1-c1ccccc1
MDA-MB-468
  growth at 10 µM: 78.5%
MCF7
  growth at 10 µM: 73.7%

## Cc1c(C(=O)Nc2cccc(C(F)(F)F)c2)nnn1-c1ccc2noc(-c3ccccc3)c2c1
K562
  growth at 10 µM: 89.8%
UO-31
  growth at 10 µM: 78.5%

## COc1cccc(NC(=O)c2nnn(-c3ccc4noc(-c5ccc(Cl)cc5)c4c3)c2C)c1
NCI-H522
  growth at 10 µM: 62%
HOP-92
  growth at 10 µM: 61.5%
MDA-MB-468
  growth at 10 µM: 56.6%
SNB-75
  growth at 10 µM: 46.6%
IGROV-1
  growth at 10 µM: 49.9%
SF-539
  growth at 10 µM: 54.1%

## Cc1c(C(=O)NCc2ccco2)nnn1-c1ccc2noc(-c3ccc(Cl)cc3)c2c1
RPMI-8226
  growth at 10 µM: 65.3%
UACC-62
  growth at 10 µM: 64.2%
A498
  growth at 10 µM: 56.2%
MDA-MB-468
  growth at 10 µM: 68%
UO-31
  growth at 10 µM: 52%

## CCc1c(C(=O)Nc2ccccc2Cl)nnn1-c1ccc2noc(-c3ccccc3)c2c1
RPMI-8226
  growth at 10 µM: 76.2%
PC-3
  growth at 10 µM: 60.6%
HOP-92
  growth at 10 µM: 58.4%
HOP-62
  growth at 10 µM: 74.2%

## CCc1c(C(=O)Nc2cccc(Cl)c2)nnn1-c1ccc2noc(-c3ccccc3)c2c1
SR
  growth at 10 µM: 77.6%
MCF7
  growth at 10 µM: 81.7%
UO-31
  growth at 10 µM: 82.6%

## CCc1c(C(=O)Nc2ccc(Cl)cc2)nnn1-c1ccc2noc(-c3ccccc3)c2c1
SR
  growth at 10 µM: 85.1%
NCI-H522
  growth at 10 µM: 88.9%
UACC-62
  growth at 10 µM: 83.6%
UO-31
  growth at 10 µM: 67.8%

## Cc1c(C(=O)Nc2ncc(Cc3ccccc3)s2)nnn1-c1ccccc1
CAKI-1
  growth at 10 µM: 80%
A549
  growth at 10 µM: 80.3%
